# ChEMBL document CHEMBL1201862, “PubChem BioAssay data set” (2004)
#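 Growth conditions: 96-well plates. Treatment: test compound, 48 hours, 5 concentrations. Analysis: linear interpolation between bracketing concentrations; unreached endpoints set to highest concentration. At the GI50, growth is halved.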 Active and inactive are the calls of the source. Cut-off read from the data, not from the text of the source: active = GI50 up to about 1.1 µM and inactive = higher.
# Tests used:
# Experiment in all cases: DTP human tumour cell line panel, 48 h
# 786-0 = tested on: 786-0
# A549 = tested on: A549
# ACHN = tested on: ACHN
# BT-549 = tested on: BT-549
# CAKI-1 = tested on: CAKI-1
# CCRF-CEM = tested on: CCRF-CEM
# COLO 205 = tested on: COLO 205
# DU-145 = tested on: DU-145
# EKVX = tested on: EKVX
# HCT-116 = tested on: HCT-116
# HCT-15 = tested on: HCT-15
# HL-60 = tested on: HL-60
# HOP-62 = tested on: HOP-62
# HOP-92 = tested on: HOP-92
# HT-29 = tested on: HT-29
# Hs-578T = tested on: Hs-578T
# IGROV-1 = tested on: IGROV-1
# K562 = tested on: K562
# KM12 = tested on: KM12
# LOX IMVI = tested on: LOX IMVI
# M14 = tested on: M14
# MCF7 = tested on: MCF7
# MDA-MB-435 = tested on: MDA-MB-435
# MDA-N = tested on: MDA-N
# MOLT-4 = tested on: MOLT-4
# Malme-3M = tested on: Malme-3M
# NCI-H226 = tested on: NCI-H226
# NCI-H23 = tested on: NCI-H23
# NCI-H460 = tested on: NCI-H460
# NCI-H522 = tested on: NCI-H522
# NCI/ADR-RES = tested on: NCI/ADR-RES
# OVCAR-3 = tested on: OVCAR-3
# OVCAR-4 = tested on: OVCAR-4
# OVCAR-5 = tested on: OVCAR-5
# OVCAR-8 = tested on: OVCAR-8
# PC-3 = tested on: PC-3
# RPMI-8226 = tested on: RPMI-8226
# SF-268 = tested on: SF-268
# SF-295 = tested on: SF-295
# SK-MEL-28 = tested on: SK-MEL-28
# SK-MEL-2 = tested on: SK-MEL-2
# SK-MEL-5 = tested on: SK-MEL-5
# SK-OV-3 = tested on: SK-OV-3
# SN12C = tested on: SN12C
# SNB-19 = tested on: SNB-19
# SNB-75 = tested on: SNB-75
# SR = tested on: SR
# SW-620 = tested on: SW-620
# T47D = tested on: T47D
# TK-10 = tested on: TK-10
# U-251 = tested on: U-251
# UACC-257 = tested on: UACC-257
# UACC-62 = tested on: UACC-62
# UO-31 = tested on: UO-31
structure (smiles),measurement,setting,value
C=CCOC1OC(CO[Si](C)(C)C(C)(C)C)C(OCc2ccccc2)C(OCc2ccccc2)C1OCc1ccccc1 (centres undefined),GI50,786-0,10.5 µM (inactive)
same,GI50,A549,23.6 µM (inactive)
same,GI50,ACHN,40.4 µM (inactive)
same,GI50,BT-549,65 µM (inactive)
same,GI50,CAKI-1,54.5 µM (inactive)
same,GI50,CCRF-CEM,> 100 µM (inactive)
same,GI50,COLO 205,> 100 µM (inactive)
same,GI50,DU-145,39.7 µM (inactive)
same,GI50,EKVX,> 100 µM (inactive)
same,GI50,HCT-116,23 µM (inactive)
same,GI50,HCT-15,88.3 µM
same,GI50,HL-60,> 100 µM (inactive)
same,GI50,HOP-62,21.7 µM (inactive)
same,GI50,HOP-92,38.5 µM (inactive)
same,GI50,HT-29,79.1 µM (inactive)
same,GI50,Hs-578T,45.2 µM (inactive)
same,GI50,IGROV-1,90.2 µM (inactive)
same,GI50,K562,> 100 µM (inactive)
same,GI50,KM12,> 100 µM (inactive)
same,GI50,LOX IMVI,25.9 µM (inactive)
same,GI50,M14,68.1 µM (inactive)
same,GI50,MCF7,54.3 µM (inactive)
same,GI50,MDA-MB-435,> 100 µM (inactive)
same,GI50,MDA-N,> 100 µM (inactive)
same,GI50,MOLT-4,> 100 µM (inactive)
same,GI50,Malme-3M,27.5 µM (inactive)
same,GI50,NCI-H226,> 100 µM (inactive)
same,GI50,NCI-H23,> 100 µM (inactive)
same,GI50,NCI-H460,42 µM (inactive)
same,GI50,NCI-H522,34 µM (inactive)
same,GI50,NCI/ADR-RES,36.6 µM (inactive)
same,GI50,OVCAR-3,37.2 µM (inactive)
same,GI50,OVCAR-4,39 µM (inactive)
same,GI50,OVCAR-5,> 100 µM (inactive)
same,GI50,OVCAR-8,37.5 µM (inactive)
same,GI50,PC-3,58.9 µM (inactive)
same,GI50,RPMI-8226,> 100 µM (inactive)
same,GI50,SF-268,40.5 µM (inactive)
same,GI50,SF-295,22.1 µM (inactive)
same,GI50,SK-MEL-28,> 100 µM (inactive)
same,GI50,SK-MEL-2,47.8 µM (inactive)
same,GI50,SK-MEL-5,29.5 µM (inactive)
same,GI50,SK-OV-3,> 100 µM (inactive)
same,GI50,SN12C,71.8 µM (inactive)
same,GI50,SNB-19,26.2 µM (inactive)
same,GI50,SNB-75,21.5 µM (inactive)
same,GI50,SR,> 100 µM (inactive)
same,GI50,SW-620,> 100 µM (inactive)
same,GI50,T47D,35.6 µM (inactive)
same,GI50,TK-10,> 100 µM (inactive)
same,GI50,U-251,29.2 µM (inactive)
same,GI50,UACC-257,46.8 µM (inactive)
same,GI50,UACC-62,27.2 µM (inactive)
same,GI50,UO-31,46.1 µM (inactive)
